Test results published in patent US9932617B2, “Ketose 3-epimerase produced by arthrobacter globiformis” (priority 2013, dated 2018).
Like-named read-outs stand apart in the source and are kept apart here. Marks after values point to notes of the source that are not given here.

How the values were obtained:
Type in all cases: biochemical, Arthrobacter globiformis M30
[1] = target: T1, ketose 3-epimerase (Arthrobacter globiformis, UniProt A0A1L7NQ96); experiment: Effects of metal ions on EDTA treated purified enzyme; conditions: for Relative activity (%): 1 mM metal ion, D-psicose substrate, EDTA treated enzyme, activity without metal ions taken as 100; for metal ion activation: purified enzyme
Description: The enzyme was examined for metal ion requirement. The purified enzyme was dialyzed for 2 hours against 10 mM Tris-HCl containing 1 mM EDTA (pH 7.5). The enzyme was further dialyzed against an EDTA-free 10 mM Tris-HCl buffer (pH 7.5) for a whole day and night to obtain an EDTA treated enzyme. This enzyme was used to measure the effect of metal ions on enzyme activity, using 1 mM of various metal ions, and D-psicose as the substrate. The results are presented in Table 13, in which the activity with addition of each type of metal ions is shown as the relative value with respect to the activity of the enzyme without metal ions which is taken as 100.

[2] = target: T1, ketose 3-epimerase
[3] = target: T1, ketose 3-epimerase; experiment: D-PE substrate specificity, enzyme before purification (crude enzyme); conditions: 0.2 M substrate, 55° C., 30 min, Tris buffer pH 7.0, D-psicose epimerization activity taken as 100
Description: A reaction was allowed under the reaction conditions below. After quenching the reaction by boiling, the reaction liquid was desalted with an ion-exchange resin, and filtered to prepare an HPLC sample. The sample was analyzed by chromatography using CK08EC (Mitsubishi Chemical Corporation) in an HPLC system (Tosoh). Each product sugar was determined by calculations from the peak area values of the chromatogram.
Eight hexose (ketoses) were used to examine the substrate specificity of the present enzyme before purification. An enzyme reaction composition (Table 4) containing each substrate (0.2 M, 350 μl) and an enzyme liquid (350 μl; Tris buffer pH 7.0) was allowed to react at 55° C. for 30 min, and the ketose epimerized and produced from each sugar was analyzed by HPLC. The results are presented as relative activity for each ketose relative to the D-psicose epimerization activity which is taken as 100, as follows. Table 5 presents relative activity values for D-fructose, D-psicose, D-sorbose, D-tagatose, L-fructose, L-psicose, L-sorbose, […] L-tagatose substrates. The activity was the highest for D-psicose, and the second highest for D-fructose. The substrate specificity can be said as characteristic of the D-psicose 3 epimerase (DPE), not other free ketose 3 epimerases, and was clearly different from the specificity of the D-tagatose3-epimerase (DTE) of Pseudomonas cichorii.

[4] = target: T1, ketose 3-epimerase; experiment: Substrate specificity of purified enzyme for all ketohexoses; conditions: 400 mM substrate, 20 mM MgCl2, 70° C. (120 min for D-sorbose and L-fructose, 20 min others), D-psicose taken as 100
Description: The reactivity of the present enzyme was examined with respect to the all ketohexoses. The enzyme activity was tabulated as the relative activity with respect to the activity for D-psicose which is taken as 100. The present enzyme had activity for the all ketohexoses, and the activity was the highest for D-psicose. […] The initial velocity was determined by allowing a reaction at 70° C. for 120 min for D-sorbose and L-fructose, and 70° C. for 20 min for the other substrates.

[5] = target: T1, ketose 3-epimerase; experiment: Km and Vmax of the present enzyme; conditions: 30° C., in the presence of Mg^2+ ions
Description: The Km and Vmax of the present enzyme for D-psicose and D-fructose were measured. The measurement was made by measuring enzyme activity at 30° C. in the presence of Mg^2+ ions.

[6] = crude enzyme dialyzed against EDTA, D-fructose substrate, pH 7.0, 55° C., 30 min

T1 sequence (A0A1L7NQ96 whole entry): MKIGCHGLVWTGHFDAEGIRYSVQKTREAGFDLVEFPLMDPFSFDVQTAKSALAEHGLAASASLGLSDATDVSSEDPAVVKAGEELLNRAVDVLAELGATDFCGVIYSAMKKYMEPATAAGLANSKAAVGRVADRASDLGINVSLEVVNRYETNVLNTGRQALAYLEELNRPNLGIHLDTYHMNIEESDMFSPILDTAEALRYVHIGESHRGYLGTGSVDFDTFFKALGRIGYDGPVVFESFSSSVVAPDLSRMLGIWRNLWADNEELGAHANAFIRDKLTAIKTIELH

| Compound | Relative activity (%) [1] | Relative activity (%) [3] | Relative activity (%) [4] | other results |
| --- | --- | --- | --- | --- |
| [Ca+2] [Ca^2+, calcium] | 110% |  |  | metal ion activation [1]: activatable |
| [Cl-].[Cl-].[Co+2] [CoCl2] |  |  |  | metal ion activation (effect of metal salt on enzyme activity) ([2]; pH 7): increased |
| [Co+2] [Co^2+, divalent cobalt ions] | 130% |  |  | metal ion activation [1]: activatable; metal ion activation (effect of metal salt on enzyme activity) [2, 6]: activatable |
| [Cu+2] [Cu^2+] | 0% |  |  |  |
| O=C(CO)[C@@H](O)[C@H](O)[C@H](O)CO [D-fructose] |  | 58.14% | 43.8% | Km [5]: 31.5 mM; Vmax [5]: 68.5 U/mg |
| O=C(CO)[C@H](O)[C@H](O)[C@H](O)CO [D-psicose] |  | 100* % | 100% | Km [5]: 30.1 mM; Vmax [5]: 168 U/mg |
| O=C(CO)[C@H](O)[C@@H](O)[C@H](O)CO [D-sorbose] |  | 1.25% | 1.13% |  |
| O=C(CO)[C@@H](O)[C@@H](O)[C@H](O)CO [D-tagatose] |  | 5.42% | 18.3% |  |
| [Fe+2] [Fe^2+] | 32% |  |  |  |
| O=C(CO)[C@H](O)[C@@H](O)[C@@H](O)CO [L-fructose] |  | 12% | 0.97% |  |
| O=C(CO)[C@@H](O)[C@@H](O)[C@@H](O)CO [L-psicose] |  | 12% | 21.2% |  |
| O=C(CO)[C@@H](O)[C@H](O)[C@@H](O)CO [L-sorbose] |  | 8% | 16.6% |  |
| O=C(CO)[C@H](O)[C@H](O)[C@@H](O)CO [L-tagatose] |  | 12.5% | 44.0% |  |
| [Mg+2] [Mg^2+, magnesium ions] | 150% |  |  | metal ion activation [1]: activatable |
| [Mn+2] [Mn^2+, divalent manganese ions] | 137% |  |  | metal ion activation [1]: activatable; metal ion activation (effect of metal salt on enzyme activity) [2, 6]: activatable |
| [Na+] [Na^+] | 120% |  |  |  |
| [Ni+2] [Ni^2+] | 87% |  |  |  |
| [Zn+2] [Zn^2+] | 0% |  |  |  |
| manganese chloride [MnCl2] |  |  |  | metal ion activation (effect of metal salt on enzyme activity) [2, 6]: increased |
